Results on nine molecules are retold here after paper PMC9841533, “Microtubule-Stabilizing 1,2,4-Triazolo[1,5-a]pyrimidines as Candidate Therapeutics for Neurodegenerative Disease: Matched Molecular Pair Analyses and Computational Studies Reveal New Structure–Activity Insights” (Journal of Medicinal Chemistry, 2022).

Each structure is given as a SMILES string.

Data set [1] has as its system acetylated α-tubulin (AcTub) levels in QBI293 cells. As to the kind of experiment: QBI293 cell assay of MT stabilization: acetylated α-tubulin ELISA. It is filed as cell-based. The conditions noted are these: for fold induction at 1 µM / fold induction at 10 µM: 4 h; for fold induction at 1 µM: read-out: AcTub (1uM); for fold induction at 10 µM: read-out: AcTub (10 uM). A digest of the protocol: (§1)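 AcTub and α-Tub were quantified by ELISA in whole-cell extracts normalized by BCA protein and expressed relative to vehicle. AcTub changes were also scaled to a 100 nM reference stabilizer control.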

The subject of data set [2] is total α-tubulin (α-Tub) levels in QBI293 cells. Also on record: method as in PMID 26980057, PMID 33411523. The conditions noted are these: 4 h incubation, reported in previous studies, cited from earlier work.
Data set [3] has the same test system. The data set is described as follows: QBI293 cell assay: total α-tubulin ELISA. The class given is cell-based. The conditions noted are these: for fold induction at 1 µM / fold induction at 10 µM: 4 h; for fold induction at 1 µM: read-out: AlfaTub (1uM); for fold induction at 10 µM: read-out: AlfaTub (10 uM). The method, boiled down:
as §1
In general terms: ELISA stands for enzyme-linked immunosorbent assay.

In data set [4] the test system is acetylated α-tubulin (AcTub) levels in QBI293 cells. Also on record: method as in PMID 26980057, PMID 33411523. Particulars: cited from earlier work; for Class (cellular phenotype): activity reported in previous studies.
A short description of data set [5]: Resazurin cell viability assay, QBI293. It is filed as cell-based. The conditions noted are these: human, QBI293 cells, three biological replicates, read-out: QBI293 CC50 ± SD. As to the method:
(§2) Cell Culture. QBI293 and HeLa cells were cultured in DMEM supplemented with 10% heat-
(§3) inactivated FBS and 1% penicillin-streptomycin. Cells were grown in T175 cell culture flasks maintained
(§4) at 37 ℃ in 5% CO2 and sub-c ultured when at 60-8 0% cell confluence.
(§5) Resazurin Cell Viability Assay. Cytotoxicity in QBI293 and HeLa cells was measured using the
(§6) resazurin cell viability assay.1 Test compounds were serially diluted in DMSO and added to 96-well
(§7) polystyrene assay plates to give final assay concentrations ranging from 100 nM to 4000 nM (1 µL; 1%
(§8) total DMSO). Fresh medium was added to the assay plate (49 µL/well). QBI293 or HeLa cells were
(§9) cells/well. Assay plates were incubated at 37 °C and 5% CO2 for 48 h, followed by addition of 20 µL 0.5
(§10) mM resazurin (Alfa Aesar, Cat. B21187) in PBS to each well. Assay plates were incubated in the dark for
(§11) (1 picture or pasted object on this page, not shown here)
(§12) 4 h at 37 °C. Fluorescence was measured at 531 nm and 595 nm excitation and emission wavelengths,
(§13) respectively, using a 2104 EnVision® multilabel plate reader. The viability of each well was normalized to
(§14) positive and negative controls in each assay plate. Dose-response curves were generated and CC50 values
(§15) calculated with GraphPad Prism, version 9.3 (San Diego, CA) using a sigmoidal four parameter logistic
(§16) curve. The means ± standard deviations from three biological replicates are shown.
(§17) (1) O'Brien, J.; Wilson, I.; Orton, T.; Pognan, F. Investigation of the Alamar Blue (resazurin) fluorescent
(§18) dye for the assessment of mammalian cell cytotoxicity. Eur. J. Biochem. 2000, 267 (17), 5421-5426.
(Alamar Blue is a resazurin reagent that responds to reducing activity.)

A short description of data set [6]: Resazurin cell viability assay, HeLa. The class given is cell-based. The conditions noted are these: human, HeLa cells, three biological replicates, read-out: HeLa CC50 ± SD. The protocol: as §2, §3, §4, §5, §6, §7, §8, §9, §10, §11, §12, §13, §14, §15, §16, §17, §18
Where [7] appears, read: 4 h incubation, reported in previous studies.
[8] abbreviates: 4 h incubation, 10 μM, reported in previous studies.

`CC(C)[C@H](Nc1c(-c2c(F)cc(F)cc2F)c(Cl)nc2ncnn12)C(F)(F)F` [Compound 9]: in data set [1] (1 uM compound), the “AcTub (1 uM - normalized)” value was found to be 0.17 and the fold induction at 1 µM worked out at 3.12. Also, in data set [1] (10 uM compound), the “AcTub (10 uM - normalized)” value is on record as 0.38 and the fold induction at 10 µM is 6.78. In addition, the “α-Tub 1 μM, fold-change compared to vehicle (DMSO)-treated cells” value (“α-Tub 1 μM, fold-change” for short) in data set [2] is 1.04 ± 0.01 fold-change. Besides, in data set [3] (1 uM compound), the fold induction at 1 µM was determined as 1.04. Further, the fold induction at 10 µM in data set [3] (10 uM compound) is 1.06. Besides, the “Class (cellular phenotype)” value in data set [4] is listed as “I”.
With `CC(C)(C)CNc1c(-c2c(F)cc(F)cc2F)c(Cl)nc2ncnn12` [Compound 11], in data set [1] (1 uM compound), the “AcTub (1uM)” value was found to be 2.04 and the “AcTub (1 uM - normalized)” value was 0.30. For the same molecule, in data set [1] (10 uM compound), the “AcTub (10 uM)” value was found to be 4.79 and the “AcTub (10 uM - normalized)” value is on record as 0.71. Moreover, in data set [2], the “α-Tub 1 μM, fold-change” value is 1.03 ± 0.07 fold-change. For the same molecule, in data set [3] (1 uM compound), the “AlfaTub (1uM)” value is 1.03. The “AlfaTub (10 uM)” value in data set [3] (10 uM compound) turned out to be 1.06. Also, in data set [4] (setting [7]), the “AcTub 1 μM, fold-change compared to positive control compound 5 (100 nM) (in parentheses)” value (“AcTub 1 μM, fold-change … (in parentheses)” below) was 0.30 fold-change and the “AcTub 1 μM, fold-change compared to vehicle (DMSO)-treated cells” value was 2.04 ± 0.11 fold-change. Also, the “AcTub 10 μM, fold-change compared to vehicle (DMSO)-treated cells” value in data set [4] (setting [8]) was 4.79 ± 0.74 fold-change. The “Class (cellular phenotype)” value in data set [4] is listed as “I”.
On to `CC1(CNc2c(-c3c(F)cc(F)cc3F)c(Cl)nc3ncnn23)N=N1` [Compound 61], for which, in data set [1] (1 uM compound), the “AcTub (1 uM - normalized)” value worked out at 0.12 and the fold induction at 1 µM is 1.56. Moreover, in data set [1] (10 uM compound), the “AcTub (10 uM - normalized)” value came to 0.27 and the fold induction at 10 µM was 3.42. For the same molecule, in data set [2], the “α-Tub 1 μM, fold-change” value is on record as 1.08 ± 0.04 fold-change and the “α-Tub 10 μM, fold-change compared to vehicle (DMSO)-treated cells” value (“α-Tub 10 μM, fold-change” below) is given as 1.03 ± 0.04 fold-change. Besides, the fold induction at 1 µM in data set [3] (1 uM compound) amounted to 1.08. In addition, in data set [3] (10 uM compound), the fold induction at 10 µM is 1.03. Also, the “AcTub 1 μM, fold-change … (in parentheses)” value in data set [4] (setting [7]) is 0.12 fold-change. Also, in data set [4], the “Class (cellular phenotype)” value is recorded as “I”.
Turning to `C[C@H](Nc1c(-c2c(F)cc(F)cc2F)c(Cl)nc2ncnn12)C1(C)N=N1` [Compound 62], in data set [1] (1 uM compound), the “AcTub (1 uM - normalized)” value amounted to 0.13 and the fold induction at 1 µM was found to be 0.84. For the same molecule, in data set [1] (10 uM compound), the “AcTub (10 uM - normalized)” value is reported as 0.28 and the fold induction at 10 µM came out at 1.85. The “α-Tub 10 μM, fold-change” value in data set [2] is given as 0.94 ± 0.02 fold-change. For the same molecule, the fold induction at 1 µM in data set [3] (1 uM compound) came out at 1.07. Further, the fold induction at 10 µM in data set [3] (10 uM compound) was 0.94. In addition, the “AcTub 10 μM, fold-change compared to vehicle (DMSO)-treated cells” value in data set [4] (setting [8]) was 1.85 ± 0.08 fold-change. The “Class (cellular phenotype)” value in data set [4] was “I”.
What is called CC50 is the concentration at which the toxic effect on the cells reaches its halfway point. Turning to `C[C@H](Nc1c(-c2c(F)cc(OCCCO)cc2F)c(Cl)nc2ncnn12)C(F)(F)F` [Compound 64], the “AcTub (1 uM - normalized)” value in data set [1] (1 uM compound) was found to be 1.24. In addition, the “AcTub (10 uM - normalized)” value in data set [1] (10 uM compound) amounted to 0.19. The fold induction at 1 µM was determined as 6.76 in data set [1] (1 uM compound) and 0.73 in data set [3] (1 uM compound). The fold induction at 10 µM in data set [1] (10 uM compound) was 1.03; in data set [3] (10 uM compound) it was 0.37. Besides, the “α-Tub 10 μM, fold-change” value in data set [2] is 0.37 ± 0.02 fold-change. Further, the CC50 at 48 h in data set [5] was determined as 226 ± 17 nM; in data set [6], 189 ± 19 nM. The “AcTub 10 μM, fold-change compared to vehicle (DMSO)-treated cells” value in data set [4] (setting [8]) was 1.03 ± 0.02 fold-change.
For `CN(C)CCCOc1cc(F)c(-c2c(Cl)nc3ncnn3c2NCC2(C)N=N2)c(F)c1` [Compound 65], in data set [1] (1 uM compound), the “AcTub (1 uM - normalized)” value was 0.81 and the fold induction at 1 µM was determined as 10.5. In data set [1] (10 uM compound), the “AcTub (10 uM - normalized)” value was determined as 0.02 and the fold induction at 10 µM was found to be 0.29. Further, in data set [2], the “α-Tub 10 μM, fold-change” value is 0.19 ± 0.02 fold-change. For the same molecule, the fold induction at 1 µM in data set [3] (1 uM compound) was determined as 0.36. Besides, the fold induction at 10 µM in data set [3] (10 uM compound) is 0.19. In addition, in data set [4] (setting [7]), the “AcTub 1 μM, fold-change … (in parentheses)” value was 0.81 fold-change and the “AcTub 1 μM, fold-change compared to vehicle (DMSO)-treated cells” value is 10.5 ± 0.4 fold-change. In data set [4] (setting [8]), the “AcTub 10 μM, fold-change compared to positive control compound 5 (100 nM) (in parentheses)” value is 0.02 fold-change.
In the case of `C[C@H](Nc1c(-c2c(F)cc(OCCCN(C)C)cc2F)c(Cl)nc2ncnn12)C1(C)N=N1` [Compound 67], the “AcTub (1 uM - normalized)” value in data set [1] (1 uM compound) turned out to be 1.01. The “AcTub (10 uM - normalized)” value in data set [1] (10 uM compound) is 0.04. In addition, the fold induction at 1 µM was 6.7 in data set [1] (1 uM compound) and 0.69 in data set [3] (1 uM compound). The values for the fold induction at 10 µM in data set [1] (10 uM compound) and in data set [3] (10 uM compound) were 0.28 and 0.78, respectively. For the same molecule, in data set [2], the “α-Tub 1 μM, fold-change” value was 0.69 ± 0.05 fold-change. Besides, the “AcTub 10 μM, fold-change compared to vehicle (DMSO)-treated cells” value in data set [4] (setting [8]) is 0.28 ± 0.03 fold-change.
On to `CC(=O)O[C@H]1C(=O)[C@@]2(C)[C@H]([C@H](OC(=O)c3ccccc3)[C@]3(O)C[C@H](OC(=O)[C@H](O)[C@@H](NC(=O)c4ccccc4)c4ccccc4)C(C)=C1C3(C)C)[C@]1(OC(C)=O)CO[C@@H]1C[C@@H]2O` [Taxol, reference compound], for which the half-maximal cytotoxic concentration (CC50) at 48 h in data set [5] turned out to be 1.29 ± 0.16 nM; in data set [6] it was 1.53 ± 0.26 nM.
On the same counts, the results for `CC[C@]1(O)C[C@@H]2CN(CCc3c([nH]c4ccccc34)[C@@](C(=O)OC)(c3cc4c(cc3OC)N(C)[C@H]3[C@@](O)(C(=O)OC)[C@H](OC(C)=O)[C@]5(CC)C=CCN6CC[C@]43[C@@H]65)C2)C1` [Vinblastine, reference compound] are 3.23 ± 0.67 nM and 2.11 ± 0.1 nM.
